According to PMC7571299 (ACS Pharmacology & Translational Science, 2020):
Entries after “also recorded” stand apart in the source; their conditions may differ. Read-outs that look alike come from different tables or passages of the source.

Key:
[1] = system: SARS-CoV-2 Isolate USA-WA1/2020; experiment: Vero E6 cell assay; format: cell-based
Vero E6 cells = settings: Vero E6, absence of virus, UTHSC
SARS-CoV-2 [2] = format: cell-based
[3] = cited from earlier work
SARS-CoV-2 [4] = format: cell-based; remark: listed apart in the source
SARS-CoV-2 [5] = settings: cited from earlier work; for Activity in NCATS CPE experiments: NCATS HTS

Row | SMILES | Reduction of virus titer (SARS-CoV-2 [4]) | Activity in NCATS CPE experiments (SARS-CoV-2 [5]) | further results
1 | CCNCc1cc(Nc2ccnc3cc(Cl)ccc23)ccc1O [N-monodesethyl amodiaquine] |  |  | Antiviral activity compared to chloroquine [1]: almost inactive; CC50 (Vero E6 cells): 5.9 µM; EC50 (SARS-CoV-2 [2]): 4 µM; half-life [3]: ~20.8 days; half-life ([3]; human, in vivo): over 3 weeks
2 | Nc1c(Br)cc(Br)cc1CN[C@H]1CC[C@H](O)CC1 [ambroxol] | inactive; also recorded: Neither primaquine nor ambroxol were found to reduce the virus titer | low activity | 
3 | CCN(CC)Cc1cc(Nc2ccnc3cc(Cl)ccc23)ccc1O [amodiaquine] |  | high activity | half-life [3]: 0.12 days
4 | CN(Cc1cc(Br)cc(Br)c1N)C1CCCCC1 [bromhexine] |  | found active | EC50 (SARS-CoV-2 [5]; read-out: EC50 in CPE assay, NCATS): 13.9 µM
5 | CCN(CC)CCCC(C)Nc1ccnc2cc(Cl)ccc12 (centres unmarked) [chloroquine] | did not reduce the virus titer |  | 
6 | O=C(OCC(O)CO)c1ccccc1Nc1ccnc2cc(Cl)ccc12 (centres unmarked) [glafenine] |  | low activity | 
7 | CC(COc1ccccc1)NC(C)C(O)c1ccc(O)cc1 (centres unmarked) [isoxsuprine] |  | low activity | 
8 | OC(CNCC(O)C1CCc2cc(F)ccc2O1)C1CCc2cc(F)ccc2O1 (centres unmarked) [nebivolol] | more than 1 log units | poor activity | 
9 | Cc1[nH]c2ccccc2c1CCNCc1ccc(/C=C/C(=O)NO)cc1 [panobinostat] |  | low activity | 
10 | CCCCc1nc2cc(/C=C/C(=O)NO)ccc2n1CCN(CC)CC [pracinostat] |  | low activity | 
11 | COc1cc(NC(C)CCCN)c2ncccc2c1 (centres unmarked) [primaquine] | Neither primaquine nor ambroxol were found to reduce the virus titer |  | Antiviral activity in dose-response experiment in comparison with chloroquine [1]: no appreciable activity; Antiviral activity at the tested concentrations (SARS-CoV-2 [2]; UTHSC dose response): did not exhibit appreciable activity
12 | CCC(CC)COC(=O)[C@H](C)N[P@](=O)(OC[C@H]1O[C@@](C#N)(c2ccc3c(N)ncnn23)[C@H](O)[C@@H]1O)Oc1ccccc1 [remdesivir] | 3–4 log units |  | 
13 | O=C(CCCCCCC(=O)Nc1ccccc1)NO [vorinostat] |  | low activity | 
14 | OCCN1CCN(CC/C=C2/c3ccccc3Sc3ccc(Cl)cc32)CC1 [zuclopenthixol] | more than 1 log unit |  | Peak of activity (SARS-CoV-2 [2]; 8.33 μM, UTHSC): 80%; bioavailability ([3]; listed as ZPX): about 50%
